Reference: patent US10696672B2 (Pliant Therapeutics, Inc., priority 2016, dated 2020)

Target: recombinant human integrin αvβ6 (Homo sapiens (Human), UniProt P06756+P18564)
Assay: Solid phase integrin αvβ6 binding assay
Conditions: plate-coated integrin; recombinant TGFβ1 LAP 0.67 ug/ml as ligand; 2 hours at 25° C.; read-out: αvβ6 Inhibition IC50 (nM) - range
Protocol: Example B1—Solid Phase Integrin αvβ6 Binding Assay
Microplates were coated with recombinant human integrin αvβ6 (2 ug/ml) in PBS (100 ul/well 25° C., overnight). The coating solution was removed, washed with wash buffer (0.05% Tween 20; 0.5 mM MnCl2; in 1×TBS). Plate was blocked with 200 ul/well of Block Buffer (1% BSA; 5% sucrose; 0.5 mM MnCl2; in 1×TBS) at 37° C. for 2 h. Dilutions of testing compounds and recombinant TGFβ1 LAP (0.67 ug/ml) in binding buffer (0.05% BSA; 2.5% sucrose; 0.5 mM MnCl2; in 1×TBS) were added. The plate was incubated for 2 hours at 25° C., washed, and incubated for 1 hour with Biotin-Anti-hLAP. Bound antibody was detected by peroxidase-conjugated streptavidin. The IC50 values for testing compounds were calculated by a four-parameter logistic regression.
The compounds tested were compound samples prepared according to procedures described in the Synthetic Examples section, with the stereochemical purity as indicated in the Examples indicated.

Chain of recombinant human integrin αvβ6 (P06756 31-992): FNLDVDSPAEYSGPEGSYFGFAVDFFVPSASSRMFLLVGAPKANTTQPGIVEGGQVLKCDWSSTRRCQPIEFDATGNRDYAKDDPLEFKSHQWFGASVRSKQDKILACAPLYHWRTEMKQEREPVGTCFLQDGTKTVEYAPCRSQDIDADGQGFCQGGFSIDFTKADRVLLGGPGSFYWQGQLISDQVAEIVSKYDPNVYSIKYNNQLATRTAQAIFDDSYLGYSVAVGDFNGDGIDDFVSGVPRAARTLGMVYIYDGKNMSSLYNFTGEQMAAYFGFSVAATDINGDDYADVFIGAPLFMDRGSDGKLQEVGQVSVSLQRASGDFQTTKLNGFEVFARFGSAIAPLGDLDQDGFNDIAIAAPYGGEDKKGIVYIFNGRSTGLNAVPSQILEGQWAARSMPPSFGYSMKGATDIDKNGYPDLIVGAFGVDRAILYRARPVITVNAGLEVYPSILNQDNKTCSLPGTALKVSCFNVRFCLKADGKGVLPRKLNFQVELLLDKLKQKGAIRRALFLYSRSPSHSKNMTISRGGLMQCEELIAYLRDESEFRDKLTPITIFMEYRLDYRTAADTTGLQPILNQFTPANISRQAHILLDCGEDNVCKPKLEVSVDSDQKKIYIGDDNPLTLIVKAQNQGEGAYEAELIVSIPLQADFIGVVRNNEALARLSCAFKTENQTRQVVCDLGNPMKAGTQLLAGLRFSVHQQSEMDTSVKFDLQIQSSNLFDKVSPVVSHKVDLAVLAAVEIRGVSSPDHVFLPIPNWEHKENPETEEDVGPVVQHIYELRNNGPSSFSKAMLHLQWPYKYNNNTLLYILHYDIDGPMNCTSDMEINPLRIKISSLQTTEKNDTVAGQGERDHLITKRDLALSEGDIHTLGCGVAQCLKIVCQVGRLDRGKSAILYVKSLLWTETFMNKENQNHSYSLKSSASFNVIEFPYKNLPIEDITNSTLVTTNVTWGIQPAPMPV
Chain of recombinant human integrin αvβ6 (P18564 22-707): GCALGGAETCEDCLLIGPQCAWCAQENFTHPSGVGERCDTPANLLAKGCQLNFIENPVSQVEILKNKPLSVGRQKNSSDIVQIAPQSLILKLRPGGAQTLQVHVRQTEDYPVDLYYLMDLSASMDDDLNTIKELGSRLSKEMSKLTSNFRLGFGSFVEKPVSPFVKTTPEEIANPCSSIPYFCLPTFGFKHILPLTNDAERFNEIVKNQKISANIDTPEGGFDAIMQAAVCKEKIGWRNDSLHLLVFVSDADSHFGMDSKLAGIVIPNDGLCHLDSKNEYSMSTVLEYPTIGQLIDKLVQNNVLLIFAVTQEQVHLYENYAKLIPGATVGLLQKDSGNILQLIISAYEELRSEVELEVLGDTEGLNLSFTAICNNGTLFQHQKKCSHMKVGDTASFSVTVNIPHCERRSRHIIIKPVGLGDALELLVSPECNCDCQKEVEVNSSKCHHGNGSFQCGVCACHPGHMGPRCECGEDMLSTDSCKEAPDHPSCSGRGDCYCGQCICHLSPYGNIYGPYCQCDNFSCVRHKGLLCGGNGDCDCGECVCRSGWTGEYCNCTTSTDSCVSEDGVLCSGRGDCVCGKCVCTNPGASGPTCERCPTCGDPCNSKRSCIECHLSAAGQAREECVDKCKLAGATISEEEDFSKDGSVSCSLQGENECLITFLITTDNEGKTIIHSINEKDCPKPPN

Row | SMILES | IC50
1 | O=C(NC(CCN1CC[C@@H](CCc2ccc3c(n2)NCCC3)C1)C(=O)O)c1ccccc1 (some centres unmarked) [3a and 3c] | < 50 nM
2 | Cc1cccc(C)c1C(=O)NC(CCN1CC[C@@H](CCc2ccc3c(n2)NCCC3)C1)C(=O)O (some centres unmarked) [4a and 4c] | < 50 nM
3 | N#Cc1cc(Cl)c(C(=O)NC(CCN2CC[C@@H](CCc3ccc4c(n3)NCCC4)C2)C(=O)O)c(Cl)c1 (some centres unmarked) [7a and 7c] | < 50 nM
4 | Cc1cc(C)n(-c2cccc(C(=O)NC(CCN3CC[C@@H](CCc4ccc5c(n4)NCCC5)C3)C(=O)O)c2)n1 (some centres unmarked) [13a and 13c] | < 50 nM
5 | O=C(NC(CCN1CC[C@@H](CCc2ccc3c(n2)NCCC3)C1)C(=O)O)c1c(Cl)cncc1Cl (some centres unmarked) [20a and 20c] | < 50 nM
6 | O=C(NC(CCN1CC[C@@H](CCc2ccc3c(n2)NCCC3)C1)C(=O)O)C1CCN(C2CC2)CC1 (some centres unmarked) [23a and 23c] | 50 to 250 nM
7 | O=C(NC(CCN1CC[C@@H](CCc2ccc3c(n2)NCCC3)C1)C(=O)O)c1ccc2ocnc2c1 (some centres unmarked) [31a and 31c] | < 50 nM
8 | CC(C)(C)C(=O)N[C@H](CCN1CC[C@@H](CCc2ccc3c(n2)NCCC3)C1)C(=O)O [Compound 1c, (R)-2-pivalamido-4-((R)-3-(2-(5,6,7,8-tetrahydro-1,8-naphthyridin-2-yl)ethyl)pyrrolidin-1-yl)butanoic acid] | < 50 nM
9 | CC(C)(C)OC(=O)N[C@@H](CCN1CC[C@@H](CCc2ccc3c(n2)NCCC3)C1)C(=O)O [Compound 2a, (S)-2-((tert-butoxycarbonyl)amino)-4-((R)-3-(2-(5,6,7,8-tetrahydro-1,8-naphthyridin-2-yl)ethyl)pyrrolidin-1-yl)butanoic acid] | < 50 nM
10 | O=C(N[C@@H](CCN1CC[C@@H](CCc2ccc3c(n2)NCCC3)C1)C(=O)O)c1cccc(F)c1Cl [Compound 5a, (S)-2-(2-chloro-3-fluorobenzamido)-4-((R)-3-(2-(5,6,7,8-tetrahydro-1,8-naphthyridin-2-yl)ethyl)pyrrolidin-1-yl)butanoic acid] | < 50 nM
11 | O=C(N[C@@H](CCN1CC[C@@H](CCc2ccc3c(n2)NCCC3)C1)C(=O)O)c1c(Cl)cccc1Cl [Compound 6a, (S)-2-(2,6-dichlorobenzamido)-4-((R)-3-(2-(5,6,7,8-tetrahydro-1,8-naphthyridin-2-yl)ethyl)pyrrolidin-1-yl)butanoic acid] | < 50 nM
12 | O=C(N[C@H](CCN1CC[C@@H](CCc2ccc3c(n2)NCCC3)C1)C(=O)O)c1c(Cl)cccc1Cl [Compound 6c, (R)-2-(2,6-dichlorobenzamido)-4-((R)-3-(2-(5,6,7,8-tetrahydro-1,8-naphthyridin-2-yl)ethyl)pyrrolidin-1-yl)butanoic acid] | 250 to 1000 nM
13 | O=C(N[C@@H](CCN1CC[C@@H](CCc2ccc3c(n2)NCCC3)C1)C(=O)O)c1ccccc1C(F)(F)F [Compound 8a, (S)-4-((R)-3-(2-(5,6,7,8-tetrahydro-1,8-naphthyridin-2-yl)ethyl)pyrrolidin-1-yl)-2-(2-(trifluoromethyl)benzamido)butanoic acid] | < 50 nM
14 | O=C(N[C@@H](CCN1CC[C@@H](CCc2ccc3c(n2)NCCC3)C1)C(=O)O)c1cccc(C(F)(F)F)c1 [Compound 9a, (S)-4-((R)-3-(2-(5,6,7,8-tetrahydro-1,8-naphthyridin-2-yl)ethyl)pyrrolidin-1-yl)-2-(3-(trifluoromethyl)benzamido)butanoic acid] | < 50 nM
15 | O=C(N[C@@H](CCN1CC[C@@H](CCc2ccc3c(n2)NCCC3)C1)C(=O)O)c1ccc(C(F)(F)F)cc1 [Compound 10a, (S)-4-((R)-3-(2-(5,6,7,8-tetrahydro-1,8-naphthyridin-2-yl)ethyl)pyrrolidin-1-yl)-2-(4-(trifluoromethyl)benzamido)butanoic acid] | < 50 nM
16 | O=C(N[C@@H](CCN1CC[C@@H](CCc2ccc3c(n2)NCCC3)C1)C(=O)O)c1cc(OC(F)(F)F)ccc1Cl [Compound 11a] | < 50 nM

Row | SMILES | IC50
17 | Cc1cc(C)n(-c2cccc(C(=O)N[C@@H](CCN3CCC(CCc4ccc5c(n4)NCCC5)CC3)C(=O)O)c2)n1 [Compound 12a, (S)-2-(3-(3,5-dimethyl-1H-pyrazol-1-yl)benzamido)-4-(4-(2-(5,6,7,8-tetrahydro-1,8-naphthyridin-2-yl)ethyl)piperidin-1-yl)butanoic acid] | > 1000 nM
18 | Cc1cc(C)n(-c2cccc(C(=O)N[C@@H](CCN3CC[C@@H](CCc4ccc5c(n4)NCCC5)C3)C(=O)O)c2)n1 [Compound 13a, (S)-2-(3-(3,5-dimethyl-1H-pyrazol-1-yl)benzamido)-4-((R)-3-(2-(5,6,7,8-tetrahydro-1,8-naphthyridin-2-yl)ethyl)pyrrolidin-1-yl)butanoic acid] | < 50 nM
19 | Cc1cc(C)n(-c2cccc(C(=O)N[C@H](CCN3CC[C@@H](CCc4ccc5c(n4)NCCC5)C3)C(=O)O)c2)n1 [Compound 13c, (R)-2-(3-(3,5-dimethyl-1H-pyrazol-1-yl)benzamido)-4-((R)-3-(2-(5,6,7,8-tetrahydro-1,8-naphthyridin-2-yl)ethyl)pyrrolidin-1-yl)butanoic acid] | < 50 nM
20 | O=C(N[C@@H](CCN1CC[C@@H](CCc2ccc3c(n2)NCCC3)C1)C(=O)O)c1ccccc1N1CCOCC1 [Compound 14a, (S)-2-(2-morpholinobenzamido)-4-((R)-3-(2-(5,6,7,8-tetrahydro-1,8-naphthyridin-2-yl)ethyl)pyrrolidin-1-yl)butanoic acid] | 50 to 250 nM
21 | O=C(N[C@@H](CCN1CC[C@@H](CCc2ccc3c(n2)NCCC3)C1)C(=O)O)c1cccc(N2CCOCC2)c1 [Compound 15a, (S)-2-(3-morpholinobenzamido)-4-((R)-3-(2-(5,6,7,8-tetrahydro-1,8-naphthyridin-2-yl)ethyl)pyrrolidin-1-yl)butanoic acid] | < 50 nM
22 | O=C(N[C@@H](CCN1CC[C@@H](CCc2ccc3c(n2)NCCC3)C1)C(=O)O)c1ccc(N2CCOCC2)cc1 [Compound 16a, (S)-2-(4-morpholinobenzamido)-4-((R)-3-(2-(5,6,7,8-tetrahydro-1,8-naphthyridin-2-yl)ethyl)pyrrolidin-1-yl)butanoic acid] | > 1000 nM
23 | O=C(N[C@@H](CCN1CC[C@@H](CCc2ccc3c(n2)NCCC3)C1)C(=O)O)c1ccccn1 [Compound 17a, (S)-2-(picolinamido)-4-((R)-3-(2-(5,6,7,8-tetrahydro-1,8-naphthyridin-2-yl)ethyl)pyrrolidin-1-yl)butanoic acid] | 50 to 250 nM
24 | O=C(N[C@@H](CCN1CC[C@@H](CCc2ccc3c(n2)NCCC3)C1)C(=O)O)c1ccncc1 [Compound 18a, (S)-2-(isonicotinamido)-4-((R)-3-(2-(5,6,7,8-tetrahydro-1,8-naphthyridin-2-yl)ethyl)pyrrolidin-1-yl)butanoic acid] | < 50 nM
25 | O=C(N[C@@H](CCN1CC[C@@H](CCc2ccc3c(n2)NCCC3)C1)C(=O)O)c1cccnc1 [Compound 19a, (S)-2-(nicotinamido)-4-((R)-3-(2-(5,6,7,8-tetrahydro-1,8-naphthyridin-2-yl)ethyl)pyrrolidin-1-yl)butanoic acid] | 50 to 250 nM
26 | O=C(N[C@@H](CCN1CC[C@@H](CCc2ccc3c(n2)NCCC3)C1)C(=O)O)C1CCC(F)(F)CC1 [Compound 21a, (S)-2-(4,4-difluorocyclohexane-1-carboxamido)-4-((R)-3-(2-(5,6,7,8-tetrahydro-1,8-naphthyridin-2-yl)ethyl)pyrrolidin-1-yl)butanoic acid] | < 50 nM
27 | O=C(N[C@H](CCN1CC[C@@H](CCc2ccc3c(n2)NCCC3)C1)C(=O)O)C1CCC(F)(F)CC1 [Compound 21c, (R)-2-(4,4-difluorocyclohexane-1-carboxamido)-4-((R)-3-(2-(5,6,7,8-tetrahydro-1,8-naphthyridin-2-yl)ethyl)pyrrolidin-1-yl)butanoic acid] | < 50 nM
28 | CC1(C(=O)N[C@@H](CCN2CC[C@@H](CCc3ccc4c(n3)NCCC4)C2)C(=O)O)CCOCC1 [Compound 22a, (S)-2-(4-methyltetrahydro-2H-pyran-4-carboxamido)-4-((R)-3-(2-(5,6,7,8-tetrahydro-1,8-naphthyridin-2-yl)ethyl)pyrrolidin-1-yl)butanoic acid] | 50 to 250 nM
29 | Cn1ncc2ccc(C(=O)N[C@@H](CCN3CC[C@@H](CCc4ccc5c(n4)NCCC5)C3)C(=O)O)cc21 [Compound 24a, (S)-2-(1-methyl-1H-indazole-6-carboxamido)-4-((R)-3-(2-(5,6,7,8-tetrahydro-1,8-naphthyridin-2-yl)ethyl)pyrrolidin-1-yl)butanoic acid] | < 50 nM
30 | Cn1ncc2cc(C(=O)N[C@@H](CCN3CC[C@@H](CCc4ccc5c(n4)NCCC5)C3)C(=O)O)ccc21 [Compound 25a, (S)-2-(1-methyl-1H-indazole-5-carboxamido)-4-((R)-3-(2-(5,6,7,8-tetrahydro-1,8-naphthyridin-2-yl)ethyl)pyrrolidin-1-yl)butanoic acid] | 50 to 250 nM
31 | O=C(N[C@@H](CCN1CC[C@@H](CCc2ccc3c(n2)NCCC3)C1)C(=O)O)c1cccc2cn[nH]c12 [Compound 26a, (S)-2-(1H-indazole-7-carboxamido)-4-((R)-3-(2-(5,6,7,8-tetrahydro-1,8-naphthyridin-2-yl)ethyl)pyrrolidin-1-yl)butanoic acid] | < 50 nM
32 | Cn1ncc2c(C(=O)N[C@@H](CCN3CC[C@@H](CCc4ccc5c(n4)NCCC5)C3)C(=O)O)cccc21 [Compound 27a, (S)-2-(1-methyl-1H-indazole-4-carboxamido)-4-((R)-3-(2-(5,6,7,8-tetrahydro-1,8-naphthyridin-2-yl)ethyl)pyrrolidin-1-yl)butanoic acid] | < 50 nM
